From publication PMC5838249, “The Apicomplexa-specific glucosamine-6-phosphate N-acetyltransferase gene family encodes a key enzyme for glycoconjugate synthesis with potential as therapeutic target” (Scientific Reports, 2018) come the findings set out here.

The target of experiment [1] is T1, TgGNA1 (Toxoplasma gondii, UniProt A0A7J6K6Y4).
T1 construct: gene TGRH88_028800
T1 sequence (A0A7J6K6Y4 1-516): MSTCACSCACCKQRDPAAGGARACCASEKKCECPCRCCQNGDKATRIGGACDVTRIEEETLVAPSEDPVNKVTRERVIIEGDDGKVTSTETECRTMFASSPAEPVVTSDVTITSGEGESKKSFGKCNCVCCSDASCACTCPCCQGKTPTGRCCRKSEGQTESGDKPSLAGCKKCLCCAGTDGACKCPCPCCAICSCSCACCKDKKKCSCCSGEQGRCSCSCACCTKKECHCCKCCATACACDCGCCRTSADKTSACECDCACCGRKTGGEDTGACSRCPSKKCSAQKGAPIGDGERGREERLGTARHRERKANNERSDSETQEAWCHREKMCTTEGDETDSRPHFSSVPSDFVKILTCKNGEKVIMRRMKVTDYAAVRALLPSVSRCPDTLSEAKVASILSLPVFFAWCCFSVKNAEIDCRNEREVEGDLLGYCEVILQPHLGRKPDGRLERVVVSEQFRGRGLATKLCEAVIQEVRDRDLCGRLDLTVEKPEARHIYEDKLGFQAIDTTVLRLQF
The experiment in a line: HPLC-MS/MS and colorimetric GNA1 assay. The settings on record: […] AcCoA, […] GlcN-6P, […] Tris-HCl, […] NaCl, pH […], room temperature. Type of experiment: biochemical.

In experiment [2] the target is T2, PfGNA1 (Plasmodium falciparum, UniProt C6KTC5).
T2 construct: gene PF3D7_0629000; deficiently expressed
T2 sequence (C6KTC5 1-291): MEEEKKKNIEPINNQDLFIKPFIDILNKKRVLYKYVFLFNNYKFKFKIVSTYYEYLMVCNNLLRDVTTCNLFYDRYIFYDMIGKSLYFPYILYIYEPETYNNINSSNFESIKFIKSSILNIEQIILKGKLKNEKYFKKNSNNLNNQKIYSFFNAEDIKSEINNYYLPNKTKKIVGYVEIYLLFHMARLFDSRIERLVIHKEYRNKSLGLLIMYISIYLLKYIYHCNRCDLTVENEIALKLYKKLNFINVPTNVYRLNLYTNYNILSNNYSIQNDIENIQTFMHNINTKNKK
The experiment in a line: HPLC-MS/MS GNA1 assay. In kind it is biochemical. The settings on record: 500 µM AcCoA, 500 µM GlcN-6P, 25 mM Tris-HCl, 150 mM NaCl, pH 7.2, room temperature.

Turning to `CC(=O)SCCNC(=O)CCNC(=O)[C@H](O)C(C)(C)COP(=O)(O)OP(=O)(O)OC[C@H]1O[C@@H](n2cnc3c(N)ncnc32)[C@H](O)[C@@H]1OP(=O)(O)O` [AcCoA], the “HPLC-MS/MS and colorimetric GNA1 assay” value in experiment [1] was “The enzymes used GlcN-6P as substrate and AcCoA as donor to produce GlcNAc-6P”. Besides, the “HPLC-MS/MS GNA1 assay” value in experiment [2] was “PfGNA1 and TaGNA1 were deficiently expressed, they also showed residual activity as detected by HPLC-MS/MS”.

As for `N[C@H]1C(O)O[C@H](COP(=O)(O)O)[C@@H](O)[C@@H]1O` (stereo partly shown) [GlcN-6P], the “HPLC-MS/MS and colorimetric GNA1 assay” value in experiment [1] is on record as “TgGNA1 distinctly acetylated GlcN-6P”. Besides, in experiment [2], the “HPLC-MS/MS GNA1 assay” value is “PfGNA1 and TaGNA1 were deficiently expressed, they also showed residual activity as detected by HPLC-MS/MS”.
